# Values of other authors in patent US20050053655A1, “Rapid disintegrating tablets (RDTs) for pharmaceutical use and method for preparing the same” (Pharmaceutical Industry Technology and Development Center, priority 2003, published 2005).
smiles,measurement,value
"NC(N)=Nc1nc(CSCCC(N)=NS(N)(=O)=O)cs1 [Famotidine, famotidine]",solubility in water,very slightly soluble in water
